What was measured:
[1] = tested on: DEVDase activity (Caspase 3) in Jurkat T cells; assay: DEVDase activity in Jurkat T cells; format: cell-based; conditions: for % L-ET18OCH3 (DEVDase, 6 hrs): Jurkat T cells; for DEVDase activity compared to ET-18-OCH3 (in words): Jurkat T cell line
Description: Suspension cells were seeded at density 3.2×10^5 cells per mL in RPMI-1640 medium (Bio-Whittaker) supplemented with 10% heat inactivated FBS (Bio-Whittaker). Cells were pre-incubated overnight prior to treatment with the ether lipid compounds of the invention. At treatment time cell density was 5×10^5 cells per mL. Cells were incubated with the ether lipid compounds of the invention for various periods of time, usually 6 hours. Cells were collected, washed with 1×DPBS and resuspended in 110 μl of Buffer A (10 mM BEPES-KOH, pH 7.4, 2 mM EDTA, 0.1% CHAPS, 5 mM DTT, 1:100 dilution of protease inhibitors cocktail (Sigma)-DTT and protease inhibitors should be added just before use). After 10 min incubation on ice in order to lyse cells, samples were frozen on dry ice/ethanol and kept at −20° C. until analysis.
At the time of analysis of DEVDase activity frozen pellets were kept on ice until thawed and after vigorous vortexing samples were centrifuged at 14,000 rpm for 6 min.; Supernatant was transferred into another tube and 2 μl, in triplicates, were used for protein measurement using Bradford reagent (Bio-Rad).
Measurement of DEVDase activity was carried out in 100 μl volume, where 10 μg of protein was delivered in 50 μl of Buffer A and 40 μM of substrate Ac-DEVD-AMC was also delivered in 50 μl of Buffer A. All measurements were done in triplicates. Reaction was carried out for 1 hour and generation of fluorescent product of reaction (aminomethylcoumarin) was measured by reading fluorescence at 1em 460 nm (1ex 360 nm). Changes in DEVDase activity were calculated after subtraction of background fluorescence of substrate incubated without proteins, and were expressed as percent of control (DEVDase activity in untreated cells). Average of DEVDase activity, calculated from few independent experiments, was used to calculate percent of L-ether lipid-induced DEVDase activity.

[2] = tested on: RPMI-8226; assay: NCI growth inhibition screen, leukemia panel; format: cell-based, human; set-up: key to Performance as compared to ET-18-O—CH3: = means equivalent activity; + means that it appears to be significantly better (i.e., by ˜2x); < means it appears to be less active than ET18OCH3 (˜2x); a combination like =/+ or </+ means that activity is dependent upon the isomer; a combination like =/+ or </+ means that activity is dependent upon the isomer; conditions: for Performance as compared to ET-18-O—CH3: RPMI-8226, Leukemia, from GI50s; for activity (in words): RPMI-8226 cell line, NCI screen
Description: (§1) Candidates deemed suitable for in vivo testing were then synthesized in large scale quantities and some of this material was sent to the NCI's Developmental Therapeutics Program for a battery of growth inhibitory studies against various human tumor cell lines (60 cell lines, 9 different panels). The remainder of the material was used to assess in vivo efficacy using murine tumor models. Additionally, studies were conducted on the lead candidates to discern mechanism of action with particular emphasis on these agents apoptotic ability as measured by caspase 3 activity. The details (materials and methods) for these various assays are described further in the following discussion.
(§2) Ten compounds were also sent to NCI's Drug Discovery Program for screening against numerous human tumor cell lines (9 panels total: renal ovarian, colon, CNS, non-small cell lung, leukemia, breast, melanoma, and prostate). The data are shown in FIGS. 2a-i which also include data regarding D- and L-ET-18-OCH3 (listed as L-EL and D-EL in the figures). Upon examining the data, one is struck by how 1R and 1a′S standout in comparison to the other compounds, especially for the renal, ovarian, colon, and CNS panels.

[3] = tested on: MOLT-4; assay: NCI growth inhibition screen, leukemia panel; format: cell-based, human; set-up: key: = means equivalent activity; + means that it appears to be significantly better (i.e., by ˜2x); < means it appears to be less active than ET18OCH3 (˜2x); a combination like =/+ or </+ means that activity is dependent upon the isomer; a combination like =/+ or </+ means that activity is dependent upon the isomer; conditions: MOLT-4, Leukemia; from GI50s
Description: as §1, §2

[4] = tested on: HL-60; assay: NCI growth inhibition screen, leukemia panel; format: cell-based, human; set-up: key: = means equivalent activity; + means that it appears to be significantly better (i.e., by ˜2x); < means it appears to be less active than ET18OCH3 (˜2x); a combination like =/+ or </+ means that activity is dependent upon the isomer; a combination like =/+ or </+ means that activity is dependent upon the isomer; conditions: HL-60, Leukemia; from GI50s
Description: as §1, §2

[5] = tested on: CCRF-CEM; assay: NCI growth inhibition screen, leukemia panel; format: cell-based, human; set-up: key: = means equivalent activity; + means that it appears to be significantly better (i.e., by ˜2x); < means it appears to be less active than ET18OCH3 (˜2x); a combination like =/+ or </+ means that activity is dependent upon the isomer; a combination like =/+ or </+ means that activity is dependent upon the isomer; conditions: from GI50s
Description: as §1, §2

[6] = tested on: UACC-257; assay: NCI growth inhibition screen, melanoma panel; format: cell-based, human; set-up: key: = means equivalent activity; + means that it appears to be significantly better (i.e., by ˜2x); < means it appears to be less active than ET18OCH3 (˜2x); a combination like =/+ or </+ means that activity is dependent upon the isomer; a combination like =/+ or </+ means that activity is dependent upon the isomer; conditions: UACC-257, Melanoma; from GI50s
Description: as §1, §2

[7] = tested on: SK-MEL-5; assay: NCI growth inhibition screen, melanoma panel; format: cell-based, human; set-up: key: = means equivalent activity; + means that it appears to be significantly better (i.e., by ˜2x); < means it appears to be less active than ET18OCH3 (˜2x); a combination like =/+ or </+ means that activity is dependent upon the isomer; a combination like =/+ or </+ means that activity is dependent upon the isomer; conditions: SK-MEL-5, Melanoma; from GI50s
Description: as §1, §2

[8] = tested on: LOX IMVI; assay: NCI growth inhibition screen, melanoma panel; format: cell-based, human; set-up: key: = means equivalent activity; + means that it appears to be significantly better (i.e., by ˜2x); < means it appears to be less active than ET18OCH3 (˜2x); a combination like =/+ or </+ means that activity is dependent upon the isomer; a combination like =/+ or </+ means that activity is dependent upon the isomer; conditions: from GI50s
Description: as §1, §2

[9] = tested on: UACC62; assay: NCI growth inhibition screen, melanoma panel; format: cell-based, human; set-up: key: = means equivalent activity; + means that it appears to be significantly better (i.e., by ˜2x); < means it appears to be less active than ET18OCH3 (˜2x); a combination like =/+ or </+ means that activity is dependent upon the isomer; a combination like =/+ or </+ means that activity is dependent upon the isomer; conditions: from GI50s
Description: as §1, §2

CCCCCCCCCCCCCCCCCCOC[C@@H](COP(=O)([O-])OCC[N+](C)(C)C)OS(C)(=O)=O [1a′S]
% L-ET18OCH3 (DEVDase, 6 hrs) ([1]; 10 μM ether lipid): 58.9 ± 9.1% | % L-ET18OCH3 (DEVDase, 6 hrs) ([1]; 20 μM ether lipid): 55.5 ± 8.3% | % L-ET18OCH3 (DEVDase, 6 hrs) ([1]; 30 μM ether lipid): 61.3 ± 9.1% | DEVDase activity compared to ET-18-OCH3 (in words) [1]: less DEVDase activity than ET-18-OCH3 | Performance as compared to ET-18-O—CH3 [2]: </+ | activity (in words) [2]: poor activity | Performance as compared to ET-18-O—CH3 [3]: 0 | Performance as compared to ET-18-O—CH3 [4]: 0 | Performance as compared to ET-18-O—CH3 [5]: 0 | Performance as compared to ET-18-O—CH3 [6]: 0 | Performance as compared to ET-18-O—CH3 [7]: 0 | Performance as compared to ET-18-O—CH3 [8]: 0 | Performance as compared to ET-18-O—CH3 [9]: 64

CCCCCCCCCCCCCCCCCCOCC(COP(=O)([O-])OCC[N+](C)(C)C)OS(C)(=O)=O (centres unmarked) [Compound 1aR]
% L-ET18OCH3 (DEVDase, 6 hrs) ([1]; 10 μM ether lipid): 56.6 ± 8.3% | % L-ET18OCH3 (DEVDase, 6 hrs) ([1]; 20 μM ether lipid): 52.4 ± 8.6% | % L-ET18OCH3 (DEVDase, 6 hrs) ([1]; 30 μM ether lipid): 51.6 ± 8.1% | DEVDase activity compared to ET-18-OCH3 (in words) [1]: less DEVDase activity than ET-18-OCH3 | Performance as compared to ET-18-O—CH3 [2]: =/+ | Performance as compared to ET-18-O—CH3 [3]: = | Performance as compared to ET-18-O—CH3 [4]: = | Performance as compared to ET-18-O—CH3 [5]: = | Performance as compared to ET-18-O—CH3 [6]: = | Performance as compared to ET-18-O—CH3 [7]: = | Performance as compared to ET-18-O—CH3 [8]: = | Performance as compared to ET-18-O—CH3 [9]: +

CCCCCCCCCCCCCCCCCCOCC(COP(=O)([O-])OCC[N+](C)(C)C)OC [D-ET18OCH3, 1-O-octadecyl-2-O-methyl-glycerophosphocholine, reference compound]
% L-ET18OCH3 (DEVDase, 6 hrs) ([1]; 10 μM ether lipid): 79.3 ± 9.7% | % L-ET18OCH3 (DEVDase, 6 hrs) ([1]; 20 μM ether lipid): 89.2 ± 12.2% | % L-ET18OCH3 (DEVDase, 6 hrs) ([1]; 30 μM ether lipid): 92.1 ± 11.8% | activity (in words) [2]: extremely poor activity
